Test results taken from publication PMC4872784 (Oncotarget, 2016).
Where two headings read alike, the source gives them in different places.

Assays:
HL-60 cells = assay: alamarBlue cytotoxicity assay, 48h; type: cell-based, human; settings: HL-60 (AML), RPMI + 10% FBS
Method: (§1) Following subtraction of background fluorescence from all wells, fluorescence of drug-treated cells was normalized to that of vehicle (<0.5% DMSO)-treated cells to determine the effect of each drug concentration on viability. Each cell line was tested in triplicate and in at least three independent experiments. IC50 (concentration that inhibits cell growth by 50%) values were calculated using CompuSyn software (ComboSyn, Paramus, NJ). […] In addition several cell lines were initially cultured and tested in alternative media (Supplementary Table S2). […] Colony counts were normalized to vehicle-treated controls (100%). Three independent experiments were performed.
(§2) In most experiments, cytotoxicity was assessed using alamarBlue assays (Life Technologies, Grand Island, NY). In experiments using NAC and DFO, which can interfere with alamarBlue assay performance, Trypan Blue dye exclusion was used instead. […]
(§3) experiments performed in triplicate. […] Age refers to age […]
(§4) at the time of leukemia diagnosis of the patient from whom the cell line was derived. (–) Indicates information unavailable.
(§5) *Cell lines with FLT3/ITD mutations.
(§6) *The MV-4–11 cell line was derived from a patient with a biphenotypic B-myelomonocytic leukemia; K562 was derived […]
(§7) 1A. p53 status was obtained from http://cancer.sanger.ac.uk/cell_lines/cbrowse/all and http://p53.free.fr/Database/Cancer_ cell_lines/Leukemia_cancer. html. WT: wild type. Mut: mutant. SM: single mutation. DM: double mutation. MM: multiple mutations. Fs: Frameshift mutation. Null: protein expression undetectable.

Jurkat cells = assay: alamarBlue cytotoxicity assay, 48h; type: cell-based, human; settings: Jurkat (T-ALL), RPMI + 10% FBS
Method: as §1, §2, §3, §4, §5, §6, §7

KG-1a cells = assay: alamarBlue cytotoxicity assay, 48h; type: cell-based, human; settings: KG-1a (AML), RPMI + 10% FBS
Method: as §1, §2, §3, §4, §5, §6, §7

MOLT-3 cells = assay: alamarBlue cytotoxicity assay, 48h; type: cell-based, human; settings: MOLT-3 (T-ALL), RPMI + 10% FBS
Method: as §1, §2, §3, §4, §5, §6, §7

NB-4 cells = assay: alamarBlue cytotoxicity assay, 48h; type: cell-based, human; settings: NB-4 (AML), RPMI + 10% FBS
Method: as §1, §2, §3, §4, §5, §6, §7

OCI-AML3 cells = assay: alamarBlue cytotoxicity assay, 48h; type: cell-based, human
Method: as §1, §2, §3, §4, §5, §6, §7

RCH-ACV cells = assay: alamarBlue cytotoxicity assay, 48h; type: cell-based, human; settings: RCH-ACV (B-ALL), RPMI + 10% FBS
Method: as §1, §2, §3, §4, §5, §6, §7

REH cells = assay: alamarBlue cytotoxicity assay, 48h; type: cell-based, human
Method: as §1, §2, §3, §4, §5, §6, §7

SUPB15 cells = assay: alamarBlue cytotoxicity assay, 48h; type: cell-based, human
Method: as §1, §2, §3, §4, §5, §6, §7

THP-1 cells = assay: alamarBlue cytotoxicity assay, 48h; type: cell-based, human
Method: as §1, §2, §3, §4, §5, §6, §7

MOLM14 cells [1] = assay: clonogenicity (colony formation in semi-solid medium); type: cell-based, human; settings: 24h pretreatment
Method: as §1
(§8) After 7-10d (leukemia cells) or 10-14d (HSPCs), colonies (≥20 cells) were enumerated.

MV-4-11 cells = assay: as above; type: cell-based, human; settings: 24h pretreatment
Method: as §1, §8

normal human CD34+ HSPCs = assay: clonogenicity of normal HSPCs; type: cell-based
Method: Cryopreserved human CD34^+ HSPCs from normal adult donors (Cellular Therapy and Cell Processing Facility, Fred Hutchinson Cancer Center, Seattle, WA) were thawed and cultured for 24h in StemSpanSFEM medium (Stemcell Technologies, Vancouver, BC, Canada) containing 100 ng/ml recombinant human (rh) stem cell factor, 20 ng/ml rh thrombopoietin, and 100 ng/ml rh FLT3 ligand (PeproTech, Rocky Hill, NJ), in the presence of the indicated drug concentrations prior to plating for clonogenic assays.
Cells pretreated with ART-838, AS, or vehicle for 24h were diluted and plated in MethoCult medium (Stemcell Technologies). After 7-10d (leukemia cells) or 10-14d (HSPCs), colonies (≥20 cells) were enumerated.
Supplementary Figure S5: Effects of ART-838 and AS on clonogenicity of normal human CD34+ HSPCs. Normal human CD34+ HSPCs were pretreated with the indicated concentrations of ART-838, AS, or vehicle (0.5% DMSO) for 24 h then cultured in semi-solid medium for 10–14d before colonies were enumerated. A. Total hematopoietic colony counts, normalized to vehicle-treated controls (100%) and B. counts of types of colonies, i.e. erythroid (E); granulocyte/macrophage (sum of GM, G and M, combined) and multilineage progenitors (GEMM). Three independent experiments were performed. Data are represented as mean +/– SEM.
Supplementary Figure S6: ART-838 and AS concentration-response curves for KOPN8 and MOLM14. […]

MOLM14 cells [2] = assay: cell cycle distribution (BrdU/7-AAD flow cytometry); type: cell-based, human; settings: for sub-G1-phase cells: vehicle 2%; for S-phase cells: vehicle 38%; for G1-phase cells: vehicle 47%
Method: After cell debris was gated out using FSC/SSC parameters, 10,000 cellular events were collected per sample. Data was analyzed and fluorescence compensation performed using FlowJo software, version 10 (Tree Star, Ashland, OR). A. Representative plots from a single experiment.
Cells were pulse-labeled with 10 μM 5-bromo-2-deoxyuridine (BrdU, BD Pharmingen, San Diego, CA) for 90min (37°C), washed in PBS, then fixed in 70% ethanol (1-3d, −20°C). DNA was denatured (2 M HCl, 30min, room temperature) and neutralized (0.1 M Na2B4O7, 10min, room temperature). Cells were stained with APC-conjugated anti-BrdU antibody (BD Pharmingen) and 7-AAD (BioLegend, San Diego, CA), and analyzed by flow cytometry.

Question: Which IC50 (HL-60 cells) does the source give for `C[C@@H]1CCC2[C@@H](C)[C@@H](CC(COP(=O)(Oc3ccccc3)Oc3ccccc3)C[C@H]3O[C@@H]4O[C@@]5(C)CCC6[C@H](C)CCC([C@H]3C)[C@]64OO5)O[C@@H]3O[C@@]4(C)CCC1[C@@]23OO4` (stereo partly shown) [ART-838, artemisinin-derived trioxane diphenylphosphate dimer 838] here?
Answer: 107 ± 45 nM

Question: What about the IC50 (Jurkat cells) of the same molecule?
Answer: 255 ± 155 nM

Question: And the IC50 (KG-1a cells)?
Answer: 547 ± 147 nM

Question: And the IC50 (MOLT-3 cells)?
Answer: 97 ± 58 nM

Question: What about the IC50 (NB-4 cells) of the same molecule?
Answer: 26 ± 7 nM

Question: What about the IC50 (OCI-AML3 cells; OCI-AML3 (AML), 48h, RPMI + 10% FBS, read-out: IC50) of the same molecule?
Answer: 168 ± 41 nM

Question: And the “-Fold Difference in IC50 between media” value (OCI-AML3 cells; OCI-AML3, RPMI + 20% FBS vs RPMI+10% FBS)?
Answer: 1.7

Question: And the IC50 (OCI-AML3 cells; OCI-AML3, original medium RPMI + 20% FBS, read-out: IC50 in original medium)?
Answer: 287 nM

Question: And the IC50 (RCH-ACV cells)?
Answer: 36 ± 12 nM

Question: And the IC50 (REH cells; REH (B-ALL), 48h, RPMI + 10% FBS, read-out: IC50)?
Answer: 95 ± 40 nM

Question: And the “-Fold Difference in IC50 between media” value (REH cells; REH, RPMI + 20% FBS vs RPMI+10% FBS)?
Answer: 1.3

Question: And the IC50 (REH cells; REH, original medium RPMI + 20% FBS, read-out: IC50 in original medium)?
Answer: 123 nM

Question: What about the IC50 (REH cells; read-out: IC50 in RPMI+10% FBS, REH, Table S2) of the same molecule?
Answer: 95 nM

Question: And the IC50 (SUPB15 cells; SUPB15 (B-ALL), 48h, RPMI + 10% FBS, read-out: IC50)?
Answer: 26 ± 3 nM

Question: And the “-Fold Difference in IC50 between media” value (SUPB15 cells; SUPB15, RPMI + 20% FBS vs RPMI+10% FBS)?
Answer: 3.0

Question: And the IC50 (SUPB15 cells; SUPB15, original medium RPMI + 20% FBS, read-out: IC50 in original medium)?
Answer: 77 nM

Question: What about the IC50 (THP-1 cells; THP-1 (AML), 48h, RPMI + 10% FBS, read-out: IC50) of the same molecule?
Answer: 38 ± 9 nM

Question: What about the “-Fold Difference in IC50 between media” value (THP-1 cells; THP-1, RPMI + 10% FBS + 50 μM β-mercaptoethanol vs RPMI+10% FBS) of the same molecule?
Answer: 2.5

Question: What about the IC50 (THP-1 cells; THP-1, original medium RPMI + 10% FBS + 50 μM β-mercaptoethanol, read-out: IC50 in original medium) of the same molecule?
Answer: 95 nM

Question: What about the clonogenicity (MOLM14 cells [1]; ART-838 0.1 μM) of the same molecule?
Answer: completely abolished

Question: What about the clonogenicity (MV-4-11 cells; ART-838 0.1 μM) of the same molecule?
Answer: completely abolished

Question: What about the “reduction of normal erythroid and monogranulocytic colony-forming cells” value (normal human CD34+ HSPCs; 1 μM ART-838, 24h pretreatment) of the same molecule?
Answer: < 25%

Question: And the sub-G1-phase cells (MOLM14 cells [2]; 0.1 μM ART-838, 24h)?
Answer: > 10%

Question: What about the S-phase cells (MOLM14 cells [2]; 0.1 μM ART-838, 24h) of the same molecule?
Answer: < 7%

Question: What about the G1-phase cells (MOLM14 cells [2]; 0.1 μM ART-838, 24h) of the same molecule?
Answer: > 61%

Question: Which IC50 (HL-60 cells; Homo sapiens) does the source give for `C[C@H]1[C@H](OC(=O)CCC(=O)O)O[C@@H]2O[C@@]3(C)CC[C@H]4[C@H](C)CC[C@@H]1[C@@]24OO3` [AS, artesunate] here?
Answer: 3000 ± 600 nM

Question: What about the IC50 (Jurkat cells; Homo sapiens) of the same molecule?
Answer: 4330 ± 1180 nM

Question: What about the IC50 (KG-1a cells; Homo sapiens) of the same molecule?
Answer: 6260 ± 300 nM

Question: And the IC50 (MOLT-3 cells; Homo sapiens)?
Answer: 4100 ± 620 nM

Question: What about the IC50 (NB-4 cells; Homo sapiens) of the same molecule?
Answer: 947 ± 141 nM

Question: What about the IC50 (OCI-AML3 cells; Homo sapiens, OCI-AML-3, OCI-AML3 (AML), 48h, RPMI + 10% FBS, read-out: IC50) of the same molecule?
Answer: 1810 ± 200 nM

Question: What about the IC50 (OCI-AML3 cells; Homo sapiens, OCI-AML-3, OCI-AML3, original medium RPMI + 20% FBS, read-out: IC50 in original medium) of the same molecule?
Answer: 3560 nM

Question: What about the IC50 (RCH-ACV cells; Homo sapiens) of the same molecule?
Answer: 3200 ± 540 nM

Question: And the IC50 (REH cells; Homo sapiens, read-out: IC50 in RPMI+10% FBS, REH, Table S2)?
Answer: 10300 nM

Question: What about the IC50 (REH cells; Homo sapiens, REH (B-ALL), 48h, RPMI + 10% FBS, read-out: IC50) of the same molecule?
Answer: 10300 ± 3000 nM

Question: And the IC50 (REH cells; Homo sapiens, REH, original medium RPMI + 20% FBS, read-out: IC50 in original medium)?
Answer: 15400 nM

Question: And the IC50 (SUPB15 cells; Homo sapiens, SUP-B15, SUPB15 (B-ALL), 48h, RPMI + 10% FBS, read-out: IC50)?
Answer: 7820 ± 1220 nM

Question: And the IC50 (SUPB15 cells; Homo sapiens, SUP-B15, SUPB15, original medium RPMI + 20% FBS, read-out: IC50 in original medium)?
Answer: 14300 nM

Question: And the IC50 (THP-1 cells; Homo sapiens, THP-1 (AML), 48h, RPMI + 10% FBS, read-out: IC50)?
Answer: 2200 ± 480 nM

Question: What about the IC50 (THP-1 cells; Homo sapiens, THP-1, original medium RPMI + 10% FBS + 50 μM β-mercaptoethanol, read-out: IC50 in original medium) of the same molecule?
Answer: 11100 nM

Question: And the clonogenicity (MOLM14 cells [1]; AS 10 μM)?
Answer: substantially reduced

Question: What about the clonogenicity (MV-4-11 cells; AS 10 μM) of the same molecule?
Answer: substantially reduced

Question: What about the “reduction of normal erythroid and monogranulocytic colony-forming cells” value (normal human CD34+ HSPCs; 10 μM AS, 24h pretreatment) of the same molecule?
Answer: < 25%

Question: And the sub-G1-phase cells (MOLM14 cells [2]; 5 μM AS, 24h)?
Answer: > 10%

Question: And the S-phase cells (MOLM14 cells [2]; 5 μM AS, 24h)?
Answer: < 7%

Question: And the G1-phase cells (MOLM14 cells [2]; 5 μM AS, 24h)?
Answer: > 61%
